Key:
type I collagen = assay: Type I collagen expression in TGF-β1-induced NHLF, western blotting (2-1); format: cell-based, human; conditions: uninduced group = 1, TGF-β1-only group = 3.61
Method: Normal Human lung fibroblasts (NHLF) were seeded into 6 cm culture dishes at a density of 2×10^5 cells/dish, comprising a control group and three experimental groups (4 dishes in total). The cells were cultured until the next day, and then the mediums were removed. Each group was respectively treated under the following conditions to conduct follow-up experiments: • (1) Positive control group: cells were cultured in a FGM-2 medium containing 1% serum for 36 hours; • (2) Negative control group: cells were cultured in a FGM-2 medium containing 1% serum and TGF-β1 (5 ng/ml) for 36 hours; • (3) Low-dose group: cells were firstly cultured in a FGM-2 medium containing 1% serum and TGF-β1 (5 ng/ml) for 12 hours, and then compound (1) was added into the medium to provide a final concentration of 15 μg/ml; thereafter, the cells were cultured for another 24 hours; and • (4) High-dose group: cells were firstly cultured in a FGM-2 medium containing 1% serum and TGF-β1 (5 ng/ml) for 12 hours, and then compound (1) was added into the medium to provide a final concentration of 25 μg/ml; thereafter, the cells were cultured for another 24 hours.
Thereafter, the proteins in the cells of each group were extracted, and the expressions of type I collagen in the NHLF cells of each group were measured with western blotting, wherein the β-actin served as the internal control. […]

IL-6 = IL-6 mRNA in mouse pulmonary tissue, RT-PCR; format: in vivo, mice; conditions: Bleomycin sulfate, normal control = 1, oil group = 3.26
From the text: 24 C57B/L6 mice (age: four weeks) were separated into four groups (6 mice in each group). […]
Then, for another portion of ground samples of each group, the total RNAs were extracted using an RNeasy Mini Kit. The QuantiTect Reverse Transcription Kit was used to conduct reverse transcription on the total RNA to obtain the cDNA. […]

## CCCC=C1OC(=O)c2ccccc21 [compound (1)]
Type I collagen; High-dose group: TGF-β1 5 ng/ml 12 h, then compound (1) 25 μg/ml 24 h
  Relative expression level of the type I collagen (fold): 1.83 fold
Type I collagen; Low-dose group: TGF-β1 5 ng/ml 12 h, then compound (1) 15 μg/ml 24 h
  Relative expression level of the type I collagen (fold): 3.56 fold
IL-6; High-dose group: mRNA in pulmonary tissue, compound (1) 50 mg/kg-body weight orally every day for 30 days
  Relative expression level (fold) IL-6: 0.53 fold
IL-6; Low-dose group: mRNA in pulmonary tissue, compound (1) 10 mg/kg-body weight orally every day for 30 days
  Relative expression level (fold) IL-6: 1.36 fold

From patent US20170333391A1, “METHOD FOR DELAYING THE ONSET OF PULMONARY FIBROSIS OR TREATING PULMONARY FIBROSIS” (EVERFRONT BIOTECH INC., priority 2016, published 2017)
